The target in the first series is T1, MRGPRX4 (Homo sapiens, UniProt Q96LA9).
T1 construct: expressed in transfected cells
T1 sequence (Q96LA9 whole entry): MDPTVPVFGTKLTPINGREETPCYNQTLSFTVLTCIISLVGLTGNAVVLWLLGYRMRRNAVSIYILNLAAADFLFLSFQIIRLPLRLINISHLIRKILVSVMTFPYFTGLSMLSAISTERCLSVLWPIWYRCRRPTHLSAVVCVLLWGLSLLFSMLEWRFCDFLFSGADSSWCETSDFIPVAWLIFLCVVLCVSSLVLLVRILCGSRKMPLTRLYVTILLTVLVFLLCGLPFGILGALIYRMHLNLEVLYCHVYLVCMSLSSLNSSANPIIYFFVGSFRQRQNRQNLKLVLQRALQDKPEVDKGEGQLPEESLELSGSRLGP
The series can be described thus: Detection of MRGPRX4 activity (IP1 HTRF, deoxycholic acid stimulation). The series is classed as cell-based. Particulars: HEK-293 cells stably expressing MRGPRX4; compound 45 min, then deoxycholic acid 45 min; IP1 content by HTRF. The method, then: HEK-293 cells stably expressing MRGPRX4 were cultured in a DMEM medium containing 10% of FBS and 1% of a double antibody under the culture conditions of 37° C. and 5% CO2. Cells in the exponential growth phase were collected and inoculated into a 384-well plate at an inoculation density of 2×10^4 cells/well, with 10 μL per well. 2 μL/well of a gradient-diluted compound was added and co-incubated with the cells for 45 min. After the incubation was complete, 2 μL/well of deoxycholic acid (MCE, Cat: #HY-N0593) was added to continue the incubation for 45 min. After the incubation was complete, IP-one Gq kit (PE, Cat: #62IPAPEB) was used to detect the content of IP1 according to the instructions. HTRF values were substituted into GraphPad 8.0, and IC50 was calculated by fitting.
Background: TR-FRET usually uses a lanthanide donor and a delayed reading to cut background.
As usually defined, the IC50 is the concentration that gives 50% inhibition. Higher therefore signals weaker potency. Regarding `O=C(O)c1cccc(Cn2ccc3cc(Cl)cc(Cl)c32)c1F` [Compound 5, 3-((5,7-Dichloro-1H-indol-1-yl)methyl)-2-fluorobenzoic acid], the IC50 was ≤ 200 nM.
`O=C(O)c1cccc(Cn2ccc3cc(Cl)c(Cl)cc32)c1F` [Compound 6, 3-((5,6-Dichloro-1H-indol-1-yl)methyl)-2-fluorobenzoic acid]: the half-maximal inhibitory concentration (IC50) was ≤ 200 nM.
As for `O=C(O)c1cccc(Cn2ccc3cc(C(F)(F)F)cc(Br)c32)c1F` [Compound 15, 3-((7-Bromo-5-(trifluoromethyl)-1H-indol-1-yl)methyl)-2-fluorobenzoic acid], the IC50 was ≤ 200 nM.
Turning to `Cc1cc(C(F)(F)F)cc2ccn(Cc3cccc(C(=O)O)c3F)c12` [Compound 16, 3-((7-Methyl-5-(trifluoromethyl)-1H-indol-1-yl)methyl)-2-fluorobenzoic acid], the IC50 was ≤ 200 nM.
On the same count and under the same terms, in the case of `O=C(O)c1cccc(Cn2ncc3cc(C(F)(F)F)cc(Br)c32)c1F` [Compound 22, 3-((7-Bromo-5-(trifluoromethyl)-1H-indazol-1-yl)methyl)-2-fluorobenzoic acid] it was 200 to 500 nM; in that of `O=C(O)c1cccc(Cn2ncc3cc(OC(F)(F)F)cc(Br)c32)c1F` [Compound 27, 3-((7-Bromo-5-(trifluoromethoxy)-1H-indazol-1-yl)methyl)-2-fluorobenzoic acid], ≤ 200 nM.
As to `O=C(O)c1cccc(Cn2ncc3cc(Cl)c(Cl)c(Cl)c32)c1F` [Compound 28, 2-Fluoro-3-((5,6,7-trichloro-1H-indazol-1-yl)methyl)benzoic acid], the IC50 was ≤ 200 nM.
The same measure, in the same setting: in the case of `O=C(O)c1cccc(Cn2ncc3cc(Cl)cc(Cl)c32)c1F` [Compound 30, 3-((5,7-Dichloro-1H-indazol-1-yl)methyl)-2-fluorobenzoic acid] it was ≤ 200 nM.
For the compound `O=C(O)c1cccc(Cn2ncc3cc(Cl)cc(Br)c32)c1F` [Compound 36, 3-((7-Bromo-5-chloro-1H-indazol-1-yl)methyl)-2-fluorobenzoic acid], the IC50 is ≤ 200 nM.
Regarding `CC(c1cccc(C(=O)O)c1F)n1ncc2cc(Cl)c(Cl)c(Cl)c21` (stereo not drawn) [Compound 39, 2-Fluoro-3-(1-(5,6,7-trichloro-1H-indazol-1-yl)ethyl)benzoic acid], the concentration for half-maximal inhibition (IC50) was ≤ 200 nM.
Same read-out and setting: in the case of `O=C(O)c1cc(Cn2ncc3cc(C(F)(F)F)cc(Br)c32)ccc1F` [Compound 41, 5-((7-Bromo-5-(trifluoromethyl)-1H-indazol-1-yl)methyl)-2-fluorobenzoic acid] it was 500 to 1000 nM; in that of `O=C(O)c1cccc(Cn2ncc3c(F)c(Cl)ccc32)c1F` [Compound 48, 3-((5-Chloro-4-fluoro-1H-indazol-1-yl)methyl)-2-fluorobenzoic acid], 200 to 500 nM.
For the compound `O=C(O)c1cccc(Cn2ncc3cc(Cl)c(F)c(Cl)c32)c1F` [Compound 51, 3-((5,7-Dichloro-6-fluoro-1H-indazol-1-yl)methyl)-2-fluorobenzoic acid], the IC50 was ≤ 200 nM.
Same read-out and setting: in the case of `Cc1ccc2c(ccn2Cc2cccc(C(=O)O)c2F)c1Cl` [Compound 62, 3-((4-Chloro-5-methyl-1H-indol-1-yl)methyl)-2-fluorobenzoic acid] it was ≤ 200 nM.
As for `O=C(O)c1cccc(Cn2ccc3c(F)c(Cl)ccc32)c1F` [Compound 66, 3-((5-Chloro-4-fluoro-1H-indol-1-yl)methyl)-2-fluorobenzoic acid], the IC50 is ≤ 200 nM.
The same measure, in the same setting: in the case of `N#Cc1ccc2c(ccn2Cc2cccc(C(=O)O)c2F)c1Cl` [Compound 74, 3-((4-Chloro-5-cyano-1H-indol-1-yl)methyl)-2-fluorobenzoic acid] it was ≤ 200 nM; in that of `O=C(O)c1cccc(Cn2ccc3c(Cl)cc(Cl)cc32)c1F` [Compound 79, 3-((4,6-Dichloro-1H-indol-1-yl)methyl)-2-fluorobenzoic acid], ≤ 200 nM; in that of `O=C(O)c1cccc(Cn2ccc3c(Cl)ccc(Cl)c32)c1F` [Compound 80, 3-((4,7-Dichloro-1H-indol-1-yl)methyl)-2-fluorobenzoic acid], 500 to 1000 nM.
With `O=C(O)c1cccc(Cn2ccc3c(Cl)c(Cl)ccc32)c1F` [Compound 81, 3-((4,5-Dichloro-1H-indol-1-yl)methyl)-2-fluorobenzoic acid], the IC50 is ≤ 200 nM.
On the same count and under the same terms, to `O=C(O)c1cccc(Cn2ccc3cc(Cl)cc(Cl)c32)c1Cl` [Compound 82, 2-Chloro-3-((5,7-dichloro-1H-indol-1-yl)methyl)benzoic acid] belongs 200 to 500 nM; to `Cc1cc(OC(F)(F)F)cc2ccn(Cc3cccc(C(=O)O)c3F)c12` [Compound 87, 2-Fluoro-3-((7-methyl-5-(trifluoromethoxy)-1H-indol-1-yl)methyl)benzoic acid], ≤ 200 nM.

Test system in the next series: not listed separately
The series can be described thus: Study of pharmacokinetics in mice in vivo. Also on record: species or system C57BL/6 mice. Particulars: male, C57BL/6, mouse, po (intragastric), 50 mg/kg, plasma. The protocol:
An appropriate amount of the test substance was weighed, and the test substance was prepared into a 2 mg/mL transparent clear solution using 5% DMSO+5% HS-15 (Solutol HS-15)+90% D5W (5% glucose) for intravenous administration. The test substance was prepared into a 5 mg/mL uniform suspension using 5% DMSO+5% HS-15+90% PBS for intragastric administration.
18 healthy male C57BL/6 mice (GemPharmatech Co., Ltd., SPF grade) were taken. The intravenous administration group and the intragastric administration group respectively had 9 animals. At each time point, blood samples were taken from 3 animals via an orbital microsampling method, with a sampling volume of approximately 0.04 mL per animal per time point.
For intravenous administration of the test substance (10 mg/kg), blood samples were taken before administration and at 5 min, 15 min, 0.5 h, 1 h, 2 h, 4 h, 8 h, and 24 h after administration, and for intragastric administration of the test substance (50 mg/kg), blood samples were taken before administration and at 15 min, 0.5 h, 1 h, 2 h, 4 h, 8 h, and 24 h after administration. After anticoagulation with EDTA-K2, the blood samples were centrifuged at 6000 g at 4° C. for 5 min to separate plasma, and all plasma samples were stored at −70° C. for testing. The drug concentration of the test substance in plasma was determined by LC-MS/MS method (with tolbutamide as an internal standard), and the main pharmacokinetic parameters were calculated by Winnolin 8.3 non-compartment model.
The term AUC denotes the area under the concentration-time curve, a measure of exposure. The term Cmax denotes the maximum level reached in the sampled fluid or tissue. What is called half-life is how long it takes for the measured level to halve. Read a low half-life as rapid decline. As to `O=C(O)c1cccc(Cn2ccc3cc(Cl)cc(Cl)c32)c1F` [Compound 5, 3-((5,7-Dichloro-1H-indol-1-yl)methyl)-2-fluorobenzoic acid], the AUC was 725 µg·h/mL, the Cmax was determined as 121 µg/mL and the half-life was 3.49 h.
The compound `Cc1cc(C(F)(F)F)cc2ccn(Cc3cccc(C(=O)O)c3F)c12` [Compound 16, 3-((7-Methyl-5-(trifluoromethyl)-1H-indol-1-yl)methyl)-2-fluorobenzoic acid] had an AUC of 612 µg·h/mL, a Cmax of 93 µg/mL and a half-life of 3.39 h.
Compound `O=C(O)c1cccc(Cn2ncc3cc(Cl)c(Cl)c(Cl)c32)c1F` [Compound 28, 2-Fluoro-3-((5,6,7-trichloro-1H-indazol-1-yl)methyl)benzoic acid] gave an AUC of 1580 µg·h/mL, a Cmax of 132 µg/mL and a half-life of 9.81 h.

For the origin of these results see US20260274800A1, “Heterocyclic Compound And Use Thereof In Medicine” (Kangbaida (Sichuan) Biotechnology Co., Ltd., priority 2023, published 2026).
